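Five concentrations, 48 hours, 96-well plates. Here, GI50 denotes the concentration required for 50% inhibition of growth.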 Activity calls are given as the source filed them. No stated cut-off is given here; in the data, active = GI50 up to about 1.1 µM and inactive = higher.
Columns and labels:
Assay in all cases: NCI tumour cell line growth inhibition, 48 h
786-0 = system: 786-0
A498 = system: A498
A549 = system: A549
ACHN = system: ACHN
BT-549 = system: BT-549
CAKI-1 = system: CAKI-1
COLO 205 = system: COLO 205
DU-145 = system: DU-145
EKVX = system: EKVX
HCC 2998 = system: HCC 2998
HCT-116 = system: HCT-116
HCT-15 = system: HCT-15
HOP-92 = system: HOP-92
HT-29 = system: HT-29
Hs-578T = system: Hs-578T
IGROV-1 = system: IGROV-1
K562 = system: K562
KM12 = system: KM12
LOX IMVI = system: LOX IMVI
M14 = system: M14
MCF7 = system: MCF7
MDA-MB-231 = system: MDA-MB-231
MDA-MB-435 = system: MDA-MB-435
MDA-N = system: MDA-N
MOLT-4 = system: MOLT-4
Malme-3M = system: Malme-3M
NCI-H226 = system: NCI-H226
NCI-H23 = system: NCI-H23
NCI-H460 = system: NCI-H460
NCI-H522 = system: NCI-H522
NCI/ADR-RES = system: NCI/ADR-RES
OVCAR-3 = system: OVCAR-3
OVCAR-4 = system: OVCAR-4
OVCAR-5 = system: OVCAR-5
OVCAR-8 = system: OVCAR-8
PC-3 = system: PC-3
RPMI-8226 = system: RPMI-8226
SF-268 = system: SF-268
SF-295 = system: SF-295
SF-539 = system: SF-539
SK-MEL-28 = system: SK-MEL-28
SK-MEL-2 = system: SK-MEL-2
SK-MEL-5 = system: SK-MEL-5
SK-OV-3 = system: SK-OV-3
SN12C = system: SN12C
SNB-19 = system: SNB-19
SW-620 = system: SW-620
T47D = system: T47D
TK-10 = system: TK-10
U-251 = system: U-251
UACC-257 = system: UACC-257
UACC-62 = system: UACC-62
UO-31 = system: UO-31
CCRF-CEM = system: CCRF-CEM
HL-60 = system: HL-60
HOP-62 = system: HOP-62
RXF 393 = system: RXF 393
SNB-75 = system: SNB-75
SR = system: SR

O=c1[nH]nc(Cc2ccccc2)n1CCO
GI50 (786-0): > 100 µM (inactive) | GI50 (A498): > 100 µM (inactive) | GI50 (A549): > 100 µM (inactive) | GI50 (ACHN): > 100 µM (inactive) | GI50 (BT-549): > 100 µM (inactive) | GI50 (CAKI-1): > 100 µM (inactive) | GI50 (COLO 205): > 100 µM (inactive) | GI50 (DU-145): > 100 µM (inactive) | GI50 (EKVX): > 100 µM (inactive) | GI50 (HCC 2998): > 100 µM (inactive) | GI50 (HCT-116): > 100 µM (inactive) | GI50 (HCT-15): > 100 µM | GI50 (HOP-92): > 100 µM (inactive) | GI50 (HT-29): > 100 µM (inactive) | GI50 (Hs-578T): > 100 µM (inactive) | GI50 (IGROV-1): > 100 µM (inactive) | GI50 (K562): > 100 µM (inactive) | GI50 (KM12): > 100 µM (inactive) | GI50 (LOX IMVI): > 100 µM (inactive) | GI50 (M14): > 100 µM (inactive) | GI50 (MCF7): > 100 µM (inactive) | GI50 (MDA-MB-231): > 100 µM (inactive) | GI50 (MDA-MB-435): > 100 µM (inactive) | GI50 (MDA-N): > 100 µM (inactive) | GI50 (MOLT-4): > 100 µM (inactive) | GI50 (Malme-3M): > 100 µM (inactive) | GI50 (NCI-H226): > 100 µM (inactive) | GI50 (NCI-H23): > 100 µM (inactive) | GI50 (NCI-H460): > 100 µM (inactive) | GI50 (NCI-H522): > 100 µM (inactive) | GI50 (NCI/ADR-RES): > 100 µM (inactive) | GI50 (OVCAR-3): > 100 µM (inactive) | GI50 (OVCAR-4): > 100 µM (inactive) | GI50 (OVCAR-5): > 100 µM (inactive) | GI50 (OVCAR-8): > 100 µM (inactive) | GI50 (PC-3): > 100 µM (inactive) | GI50 (RPMI-8226): > 100 µM (inactive) | GI50 (SF-268): > 100 µM (inactive) | GI50 (SF-295): > 100 µM (inactive) | GI50 (SF-539): > 100 µM (inactive) | GI50 (SK-MEL-28): > 100 µM (inactive) | GI50 (SK-MEL-2): > 100 µM (inactive) | GI50 (SK-MEL-5): > 100 µM (inactive) | GI50 (SK-OV-3): > 100 µM (inactive) | GI50 (SN12C): > 100 µM (inactive) | GI50 (SNB-19): > 100 µM (inactive) | GI50 (SW-620): > 100 µM (inactive) | GI50 (T47D): > 100 µM (inactive) | GI50 (TK-10): > 100 µM (inactive) | GI50 (U-251): > 100 µM (inactive) | GI50 (UACC-257): > 100 µM (inactive) | GI50 (UACC-62): > 100 µM (inactive) | GI50 (UO-31): > 100 µM (inactive)

COC(=O)C(Cc1c(-c2[nH]c3ccccc3c2CC(NC(C)=O)C(=O)OC)[nH]c2ccccc12)NC(C)=O (stereo not drawn)
GI50 (786-0): > 100 µM (inactive) | GI50 (A498): > 100 µM (inactive) | GI50 (A549): > 100 µM (inactive) | GI50 (ACHN): > 100 µM (inactive) | GI50 (BT-549): > 100 µM (inactive) | GI50 (CAKI-1): > 100 µM (inactive) | GI50 (CCRF-CEM): > 100 µM (inactive) | GI50 (COLO 205): > 100 µM (inactive) | GI50 (DU-145): > 100 µM (inactive) | GI50 (EKVX): > 100 µM (inactive) | GI50 (HCT-116): > 100 µM (inactive) | GI50 (HCT-15): > 100 µM | GI50 (HL-60): > 100 µM (inactive) | GI50 (HOP-62): > 100 µM (inactive) | GI50 (HOP-92): > 100 µM (inactive) | GI50 (HT-29): > 100 µM (inactive) | GI50 (Hs-578T): > 100 µM (inactive) | GI50 (IGROV-1): > 100 µM (inactive) | GI50 (K562): > 100 µM (inactive) | GI50 (KM12): > 100 µM (inactive) | GI50 (LOX IMVI): > 100 µM (inactive) | GI50 (M14): > 100 µM (inactive) | GI50 (MDA-MB-231): > 100 µM (inactive) | GI50 (MDA-MB-435): > 100 µM (inactive) | GI50 (MDA-N): > 100 µM (inactive) | GI50 (MOLT-4): > 100 µM (inactive) | GI50 (Malme-3M): > 100 µM (inactive) | GI50 (NCI-H226): > 100 µM (inactive) | GI50 (NCI-H23): > 100 µM (inactive) | GI50 (NCI-H460): > 100 µM (inactive) | GI50 (NCI-H522): 16.3 µM (inactive) | GI50 (NCI/ADR-RES): > 100 µM (inactive) | GI50 (OVCAR-3): > 100 µM (inactive) | GI50 (OVCAR-5): > 100 µM (inactive) | GI50 (OVCAR-8): > 100 µM (inactive) | GI50 (PC-3): > 100 µM (inactive) | GI50 (RPMI-8226): > 100 µM (inactive) | GI50 (RXF 393): > 100 µM (inactive) | GI50 (SF-268): > 100 µM (inactive) | GI50 (SF-295): > 100 µM (inactive) | GI50 (SF-539): > 100 µM (inactive) | GI50 (SK-MEL-28): > 100 µM (inactive) | GI50 (SK-MEL-2): > 100 µM (inactive) | GI50 (SK-MEL-5): > 100 µM (inactive) | GI50 (SK-OV-3): > 100 µM (inactive) | GI50 (SN12C): > 100 µM (inactive) | GI50 (SNB-19): > 100 µM (inactive) | GI50 (SNB-75): 92 µM (inactive) | GI50 (SW-620): > 100 µM (inactive) | GI50 (T47D): > 100 µM (inactive) | GI50 (TK-10): > 100 µM (inactive) | GI50 (U-251): > 100 µM (inactive) | GI50 (UACC-257): > 100 µM (inactive) | GI50 (UACC-62): > 100 µM (inactive) | GI50 (UO-31): > 100 µM (inactive)

O=c1[nH]c(Nc2nc3ccccc3[nH]2)nc(O)c1Cc1ccccc1
GI50 (786-0): 61.5 µM (inactive) | GI50 (A498): > 100 µM (inactive) | GI50 (A549): > 100 µM (inactive) | GI50 (ACHN): 61 µM (inactive) | GI50 (BT-549): > 100 µM (inactive) | GI50 (CAKI-1): > 100 µM (inactive) | GI50 (CCRF-CEM): > 100 µM (inactive) | GI50 (COLO 205): > 100 µM (inactive) | GI50 (DU-145): > 100 µM (inactive) | GI50 (EKVX): > 100 µM (inactive) | GI50 (HCT-116): > 100 µM (inactive) | GI50 (HCT-15): > 100 µM | GI50 (HL-60): > 100 µM (inactive) | GI50 (HOP-92): 0.193 µM (active) | GI50 (HT-29): > 100 µM (inactive) | GI50 (Hs-578T): 56 µM (inactive) | GI50 (IGROV-1): > 100 µM (inactive) | GI50 (K562): > 100 µM (inactive) | GI50 (KM12): > 100 µM (inactive) | GI50 (M14): > 100 µM (inactive) | GI50 (MDA-MB-231): > 100 µM (inactive) | GI50 (MDA-MB-435): > 100 µM (inactive) | GI50 (MDA-N): > 100 µM (inactive) | GI50 (MOLT-4): > 100 µM (inactive) | GI50 (Malme-3M): > 100 µM (inactive) | GI50 (NCI-H226): > 100 µM (inactive) | GI50 (NCI-H23): > 100 µM (inactive) | GI50 (NCI-H460): > 100 µM (inactive) | GI50 (NCI-H522): > 100 µM (inactive) | GI50 (NCI/ADR-RES): > 100 µM (inactive) | GI50 (OVCAR-4): > 100 µM (inactive) | GI50 (OVCAR-8): > 100 µM (inactive) | GI50 (PC-3): > 100 µM (inactive) | GI50 (RPMI-8226): > 100 µM (inactive) | GI50 (SF-268): > 100 µM (inactive) | GI50 (SF-539): > 100 µM (inactive) | GI50 (SK-MEL-28): > 100 µM (inactive) | GI50 (SK-MEL-2): > 100 µM (inactive) | GI50 (SK-MEL-5): > 100 µM (inactive) | GI50 (SN12C): > 100 µM (inactive) | GI50 (SNB-19): 67.8 µM (inactive) | GI50 (SNB-75): 24 µM (inactive) | GI50 (SR): > 100 µM (inactive) | GI50 (SW-620): > 100 µM (inactive) | GI50 (T47D): > 100 µM (inactive) | GI50 (TK-10): > 100 µM (inactive) | GI50 (U-251): 56.8 µM (inactive) | GI50 (UACC-257): > 100 µM (inactive) | GI50 (UACC-62): > 100 µM (inactive) | GI50 (UO-31): > 100 µM (inactive)

— ChEMBL document CHEMBL1201862, “PubChem BioAssay data set” (2004)
